Assay results reported in patent US10016417B2, “Extended release formulation of a direct thrombin inhibitor” (Diakron Pharmaceuticals Inc., priority 2011, dated 2018).

What was measured:
thrombin [1] = assay: Single dose crossover study: thrombin time (TT); assay type: in vivo, human; details: by 48 hrs; returned to within
Description: As used herein, the term “thrombin time (TT)” is the time required for plasma fibrinogen to form […], measured as the time for clot formation after exogenous thrombin is added to citrated plasma.
(§1) Four formulations having same composition as those described in Example 1 were dosed in a clinical study. […] (reported as the international normalized ratio [INR]); (i.e. PD parameters) and (3) assess the safety of DPOC-4088 in healthy volunteers.
(§2) Twelve subjects aged 21 to 45 (mean 32.9±8.55) years were enrolled, and were dosed in 4 periods after an overnight fast and had blood drawn for PK/PD determinations immediately prior to dosing and at specified time intervals for 48 hrs post-dosing. Each dosing period was separated by a ≥5-day washout. The observed PK and PD parameters are tabulated as Table 12.

[2] = Single dose crossover study: safety; assay type: in vivo, human
Description: as §1
as §2, with “washout.” for “washout. The observed PK and PD parameters are tabulated as Table 12.”

[3] = Multiple once-daily oral dosing study, Dose Step 1 100 mg q.d.: PK; assay type: in vivo, human; details: assuming dose linearity from Day 10 PK data
Description: (§3) Randomized, double-blind, placebo-controlled, stepwise study of the pharmacokinetics (PK), pharmacodynamics (PD), PK/PD characteristics and safety of multiple once-daily oral dosing of DPOC-4088 in healthy young male subjects
Preliminary Safety, PK, and PD Results Dose Step 1: 100 mg q.d.
Mean PK profiles of DPOC-4088 on Day 1 (first dose) and Day 10 (steady-state) are shown in FIGS. 14 a-b, respectively. • On Day 1, the mean PK profile was in line with observation from the previous single dose study (DPOC-001). • The degree of accumulation to steady-state levels was modest with a Day 10/Day 1 ratio for AUC24h of 1.4. […] Pharmacodynamics

[4] = Multiple once-daily dosing study: safety; assay type: in vivo, human
Text: as §3
10 healthy volunteers participated in the first step of the multiple dose study (8 received DPOC-4088 and 2 received placebo). […] Minor AEs were reported. All AEs were grade 1, transient and were resolved. No bruising (except for puncture site hematomas) or petechiae were reported and the physical (including neurological) exams were normal in all volunteers. The lab exams were within normal limits or deviating without clinical significance.

thrombin [5] = target: T1, thrombin (Homo sapiens, UniProt P00734); assay: Single dose crossover study: activated partial thromboplastin time (aPTT); assay type: in vivo; design: from tissue; host or cells: blood plasma of dosed subjects; details: 24 hrs post-dose
Description: (§4) As used herein, the term “activated partial thromboplastin time (aPTT)” is the period required for clot formation in recalcified blood plasma after contact activation and the addition of platelet substitutes. This measure is used to address the intrinsic and common pathways of coagulation.
as §1, §2

thrombin [6] = target: T1, thrombin; assay: Single dose crossover study: prothrombin time PT (INR); assay type: in vivo; design: from tissue; host or cells: blood plasma of dosed subjects
Description: As used herein, the term “prothrombin time (PT)” is the rate at which prothrombin is converted to thrombin in citrated blood with added calcium. This is used to assess the extrinsic coagulation system of the blood
as §1, §2

thrombin [7] = target: T1, thrombin; assay: Multiple once-daily dosing study: aPTT; assay type: in vivo; design: from tissue; host or cells: blood plasma of dosed subjects; details: at maximum levels, from regression analyses
Text: as §4, §3
Mean maximum and minimum fold changes compared to baseline (Day 1, pre dose) in ECT, aPTT and PT on Day 10 are shown in Table 15. […] Minimum changes in ECT and aPTT on Day 10 were 1.12 and 1.10 respectively (Table 16). These values are lower than the target values defined in the protocol which were 2 and 1.5, respectively, at steady-state trough levels (see below). • Linear regression on the changes in ECT and aPTT versus DPOC-4088 plasma levels was performed. […] For ECT the changes would be 2.4 and 3.1 fold respectively. • For reference, for dabigatran, clinically relevant doses result in changes in aPTT of approximately 1.50 fold at trough levels and 2-fold at maximum levels. For ECT these changes are approximately 2-fold at trough levels and 3-fold at maximum levels.

thrombin [8] = target: T1, thrombin; assay: Single dose crossover study: ecarin clotting time (ECT); assay type: in vivo; design: a prothrombin-thrombin intermediate which retains the full molecular weight of prothrombin; from tissue; host or cells: blood plasma of dosed subjects
thrombin [9] = target: T1, thrombin; assay: Multiple once-daily dosing study: ECT; assay type: in vivo; design: a prothrombin-thrombin intermediate which retains the full molecular weight of prothrombin; from tissue; host or cells: blood plasma of dosed subjects; details: at maximum levels, from regression analyses

- expected maximum DPOC-4088 levels ([3]; daily dose 200 mg): ~2000 nM
- expected maximum DPOC-4088 levels ([3]; daily dose 300 mg): ~3000 nM
- mean aPTT above the pre-dose aPTT (thrombin [5]; 100 mg): 12-15%
- mean aPTT above the pre-dose aPTT (thrombin [5]; 200 mg): 21-24%
- mean peak INR (thrombin [6]; single dose 100 mg formulations): 1.15-1.17
- mean peak INR (thrombin [6]; single dose 200 mg formulations): 1.28-1.30
- time at which mean peak INRs were reached (thrombin [6]; single doses of 100 or 200 mg): 4 h
- aPTT expected fold change from baseline (thrombin [7]; Day 10, 200 mg once daily): 1.8 fold
- aPTT expected fold change from baseline (thrombin [7]; Day 10, 300 mg once daily): 2.2 fold
- mean 24 hr ECT above the pre-dose ECT (thrombin [8]; 100 mg dose): 21-23%
- mean 24 hr ECT above the pre-dose ECT (thrombin [8]; 200 mg dose): 35-36%
- ECT expected fold change from baseline (thrombin [9]; Day 10, 200 mg once daily): 2.4 fold
- ECT expected fold change from baseline (thrombin [9]; Day 10, 300 mg once daily): 3.1 fold
Structure (SMILES): O=C(Cn1c(Cl)cnc(NCC(F)(F)c2ccccn2)c1=O)NCc1ncccc1F [DPOC-4088, 3-fluoro-2-pyridylmethyl-3-(2,2-difluoro-2-(2-pyridyl)ethylamino)-6-chloropyrazin-2-one-1-acetamide]
- mean TT relative to pre-dosing TT (thrombin [1]): 1-15%
- safety and tolerability ([2]; 100 and 200 mg doses, both release formulations): safe and well-tolerated
- Adverse events (AEs), subjects ([2]; most grade 1, unrelated or unlikely related): 9/12
- safety conclusion ([4]; 100 mg level, after 10 days of oral administration): very safe
- treatment emergent serious adverse events (AEs) ([4]; 100 mg q.d., 8 on DPOC-4088): No treatment emergent serious adverse events
